Patent publication US20140018316A1, “OPHTHALMIC PHARMACEUTICAL COMPOSITION” (Hayashibara Co., Ltd., priority 2005, published 2014)

System: pig lens
Assay: Swelling and cloudiness of extracted pig lenses soaked in test or control solutions (traumatic cataract model)
Design: key to degree of cloudiness in the lens (relative value): relative gray-scale density; uninjured lens in saline at start = 10
Protocol: Using an injured pig lens employed as a model for traumatic cataract, the influence of cyclic tetrasaccharide on the cloudiness in the lens was experimented as follows: A test solution was previously prepared by dissolving a cyclic tetrasaccharide crystal, penta hydrate, which had been prepared by the method in the later described Reference for Example 2, in physiological saline into a physiological saline containing 100 mM cyclic tetrasaccharide. As a positive control, a physiological saline containing 100 mM α,α-trehalose, a reagent grade specimen, commercialized by Hayashibara Biochemical Laboratories, Inc., Okayama, Japan, was used; andasanegativecontrol, physiological saline was used. Two milliliter aliquots of any one of the above three kinds of aqueous solutions were added to every two wells in respective commercialized 24-well culture plates. In one of the two wells containing the same kind of solution in each plate was placed a pig lens, which had been obtained from a slaughter-house, extracted by incision within three hours after the obtention and without injuring, and washing the extracted lens with physiological saline; while in the other of the two wells was placed a pig lens, which had been prepared by the same procedure as in the above but injured with a 27-gauge injection needle (commercialized by Terumo Co., Tokyo, Japan) to form an injured line, about one millimeter in length. These lens were allowed to stand at ambient temperature and macroscopically and microscopically observed their change in the degree of cloudiness and in the shape of swelling, etc. This experiment was run in a triplicate manner, and the macroscopic and microscopic observations were done just after (0), 1 hour, 2 hours, 6 hours, and 24 hours after the lenses were placed in the wells, and then observed daily over 28 days. A similar experiment was further conducted using a physiological saline containing 75 mM, 50 mM, 20 mM, 10 mM, or 1 mM cyclic tetrasaccharide and a lens that had not been injured with the injection needle. The degree of cloudiness in each lens, observed with “STEREOMICROSCOPE SZX12”, a product name of a stereomicroscope commercialized by Olympus Co., Tokyo, Japan, was expressed by photographing a transmitted light image of each lens with “PENGUIN 150CL”, a digital camera commercialized by Pixela Co., Tokyo, Japan, capturing the transmitted image by a computer using a view finder commercialized by Olympus Co., Tokyo, Japan, and expressing numerically the degree of light and shade of the captured image as a gray-scale using “Scion Image for Windows Beta 4.0.2”, a software commercialized by Scion Co., Maryland, U.S.A., to obtain a mean density for each lens. The time course change in the degree of cloudiness in each lens placed in each solution was expressed with a relative value, regarding the degree of cloudiness, just after the lens free of injury had been placed in physiological saline, as 10. The change of cloudiness and swelling are respectively in Tables 1 and 2. In Table 1, there show only the results from time 0 hour through two days and from days 7, 14 and 28.

[1] = 1 mM in physiological saline, no injury, 28 days
[2] = 10 mM in physiological saline, no injury, 28 days
[3] = 20 mM in physiological saline, no injury, 28 days
[4] = pig lens in physiological saline

In the case of `OCC1OC2OCC3O[C@H](O[C@H]4C(O)C(CO)OC(OCC5O[C@H](O[C@@H](C1O)C2O)C(O)C(O)[C@@H]5O)C4O)C(O)C(O)[C@@H]3O` (stereo partly drawn) [Test solution, cyclo{→6)-α-D-glucopyranosyl-(1→3)-α-D-glucopyranosyl-(1→6)-α-D-glucopyranosyl-(1→3)-α-D-glucopyranosyl-(1→}], the “degree of cloudiness in the lens (relative value)” value (shortened to “degree … (relative value)”) (1 mM in physiological saline, no injury, 1 hour) is reported as 11, the “degree … (relative value)” value (1 mM in physiological saline, no injury, 2 hours) is reported as 12 and the “degree … (relative value)” value (1 mM in physiological saline, no injury, 6 hours) is reported as 11. The “degree … (relative value)” value (1 mM in physiological saline, no injury, 24 hours) was 12, the “degree … (relative value)” value (1 mM in physiological saline, no injury, 2 days) was 14 and the “degree … (relative value)” value (1 mM in physiological saline, no injury, 7 days) was 55. The “degree … (relative value)” value (1 mM in physiological saline, no injury, 14 days) was 61, the “degree … (relative value)” value [1] was 85 and the “swelling of the lens” value [1] was “◯ (swelling was observed)”. The “degree … (relative value)” value (1 mM in physiological saline, no injury, time 0) was 10, the “degree … (relative value)” value (10 mM in physiological saline, no injury, 1 hour) was 12 and the “degree … (relative value)” value (10 mM in physiological saline, no injury, 2 hours) was 11. The “degree … (relative value)” value (10 mM in physiological saline, no injury, 6 hours) was 12, the “degree … (relative value)” value (10 mM in physiological saline, no injury, 24 hours) was 11 and the “degree … (relative value)” value (10 mM in physiological saline, no injury, 2 days) was 13. For the same compound, the “degree … (relative value)” value (10 mM in physiological saline, no injury, 7 days) was 49, the “degree … (relative value)” value (10 mM in physiological saline, no injury, 14 days) was 59 and the “degree … (relative value)” value [2] was 87. For the same compound, the “swelling of the lens” value [2] was “◯ (swelling was observed)”, the “degree … (relative value)” value (10 mM in physiological saline, no injury, time 0) was 10 and the “degree … (relative value)” value (20 mM in physiological saline, no injury, 1 hour) was 11. For the same compound, the “degree … (relative value)” value (20 mM in physiological saline, no injury, 2 hours) was 12, the “degree … (relative value)” value (20 mM in physiological saline, no injury, 6 hours) was 12 and the “degree … (relative value)” value (20 mM in physiological saline, no injury, 24 hours) was 12. The “degree … (relative value)” value (20 mM in physiological saline, no injury, 2 days) was 14, the “degree … (relative value)” value (20 mM in physiological saline, no injury, 7 days) was 51 and the “degree … (relative value)” value (20 mM in physiological saline, no injury, 14 days) was 60. The “degree … (relative value)” value [3] was 71, the “swelling of the lens” value [3] was “◯ (swelling was observed)” and the “degree … (relative value)” value (20 mM in physiological saline, no injury, time 0) was 10. For the same compound, the “cloudiness in the lens (in words)” value (20 mM, 10 mM or 1 mM, lenses with no injury, from seven days) was “cloudiness was observed throughout the lenses”, the “swelling of the lens (in words)” value (20 mM, 10 mM or 1 mM, lenses with no injury, until 14 days) was “No swelling of the lenses was observed” and the “degree … (relative value)” value (50 mM in physiological saline, no injury, 1 hour) was 11. The “degree … (relative value)” value (50 mM in physiological saline, no injury, 2 hours) was 12, the “degree … (relative value)” value (50 mM in physiological saline, no injury, 6 hours) was 12 and the “degree … (relative value)” value (50 mM in physiological saline, no injury, 24 hours) was 12. For the same compound, the “degree … (relative value)” value (50 mM in physiological saline, no injury, 2 days) was 13, the “degree … (relative value)” value (50 mM in physiological saline, no injury, 7 days) was 15 and the “degree … (relative value)” value (50 mM in physiological saline, no injury, 14 days) was 20. The “degree … (relative value)” value (50 mM in physiological saline, no injury, 28 days) was 28, the “degree … (relative value)” value (50 mM in physiological saline, no injury, time 0) was 10 and the “degree … (relative value)” value (75 mM in physiological saline, no injury, 1 hour) was 11. For the same compound, the “degree … (relative value)” value (75 mM in physiological saline, no injury, 2 hours) was 12, the “degree … (relative value)” value (75 mM in physiological saline, no injury, 6 hours) was 12 and the “degree … (relative value)” value (75 mM in physiological saline, no injury, 24 hours) was 12. The “degree … (relative value)” value (75 mM in physiological saline, no injury, 2 days) was 12, the “degree … (relative value)” value (75 mM in physiological saline, no injury, 7 days) was 14 and the “degree … (relative value)” value (75 mM in physiological saline, no injury, 14 days) was 21. The “degree … (relative value)” value (75 mM in physiological saline, no injury, 28 days) was 29, the “degree … (relative value)” value (75 mM in physiological saline, no injury, time 0) was 10 and the “swelling of the lens (in words)” value (75 mM or 50 mM, lenses with no injury, until 28 days) was “No swelling was observed”. For the same compound, the “degree … (relative value)” value (100 mM in physiological saline, injured lens, 1 hour) was 10, the “degree … (relative value)” value (100 mM in physiological saline, injured lens, 2 hours) was 10 and the “degree … (relative value)” value (100 mM in physiological saline, injured lens, 6 hours) was 12. For the same compound, the “degree … (relative value)” value (100 mM in physiological saline, injured lens, 24 hours) was 12, the “degree … (relative value)” value (100 mM in physiological saline, injured lens, 2 days) was 12 and the “degree … (relative value)” value (100 mM in physiological saline, injured lens, time 0) was 10. The “degree … (relative value)” value (100 mM in physiological saline, no injury, 1 hour) was 13, the “degree … (relative value)” value (100 mM in physiological saline, no injury, 2 hours) was 12 and the “degree … (relative value)” value (100 mM in physiological saline, no injury, 6 hours) was 12. The “degree … (relative value)” value (100 mM in physiological saline, no injury, 24 hours) was 12, the “degree … (relative value)” value (100 mM in physiological saline, no injury, 2 days) was 11 and the “degree … (relative value)” value (100 mM in physiological saline, no injury, 7 days) was 12. The “degree … (relative value)” value (100 mM in physiological saline, no injury, 14 days) was 15, the “degree … (relative value)” value (100 mM in physiological saline, no injury, 28 days) was 15 and the “degree … (relative value)” value (100 mM in physiological saline, no injury, time 0) was 10. The “swelling of the lens (in words)” value (100 mM, injured lens, 2 days after initiating observation) was “the swelling of the lens was not observed”, the “cloudiness in the lens (in words)” value (100 mM, injured lens, after 2 days) was “partial cloudiness only at the injured site” and the “swelling of the lens (in words)” value (100 mM, lenses with no injury, on 28 days) was “no swelling”. For the same compound, the “concentration with a satisfactory swelling-inhibitory-effect on the lens” value [4] was at least 1 mM and the “concentration with an action of inhibiting the swelling and cloudiness in the lens and maintaining transparency” value [4] was at least 50 mM.
